According to PMC5504357, “Antifungal Potential of Copper(II), Manganese(II) and Silver(I) 1,10-Phenanthroline Chelates Against Multidrug-Resistant Fungal Species Forming the Candida haemulonii Complex: Impact on the Planktonic and Biofilm Lifestyles” (Frontiers in Microbiology, 2017):

Columns and labels:
Candida haemulonii [1] = assay: Planktonic growth, broth microdilution (CLSI M27-A3), MIC; assay type: cell-based; conditions: for GM-MIC: geometric mean of three C. haemulonii isolates; for MIC: planktonic, 48 h, 37°C
From the text: (§1) Three clinical isolates of each species that form the C. haemulonii complex were used in this study: C. haemulonii (LIPCh4 from finger nail, LIPCh7 from toe nail, and LIPCh12 from blood), C. duobushaemulonii (LIPCh1 from finger nail, LIPCh6 from toe nail, and LIPCh8 from blood) and C. haemulonii var. vulnera (LIPCh5 from toe nail, LIPCh9 from urine, and LIPCh11 from blood) (Ramos et al., [2015]). The fungal isolates were identified by the automatized system VITEK® 2 and then characterized by ITS1-5.8S-ITS2 gene sequencing (Ramos et al., [2015]). Fungal cells were cultured in Sabouraud-dextrose medium under constant agitation (130 rpm) for 48 h at 37°C. Human lung adenocarcinoma A549 cells were maintained in culture flasks containing DMEM medium supplemented with 10% fetal bovine serum at 37°C in an atmosphere of 5% CO2.
(§2) Susceptibility profile assays were performed in accordance with the broth microdilution protocol described in the document M27-A3 published by the Clinical and Laboratory Standards Institutes (CLSI, [2008]). Samples of the test chelates were dissolved in DMSO (500 μL) and then serially diluted in a 96-well plate containing RPMI 1640 (Sigma-Aldrich, USA) to give the concentration range of 0.0625-32 mg/L. Aqueous solutions of the metal-free phen ligand and the simple metal salts, MnCl2, CuCl2, and AgNO3, were also screened over the same concentration range. Caspofungin (Sigma-Aldrich) was used as a classical antifungal agent able to block the growth of all clinical isolates of C. haemulonii species as previously reported by our research group (Ramos et al., [2015]). Water dilutions containing DMSO concentrations corresponding to those used to prepare the drug solutions were assessed in parallel. Untreated and compound-treated fungal cells were incubated at 37°C for 48 h and the minimal inhibitory concentration (MIC) was established as the lowest compound concentration where no cellular growth could be detected by visual inspection in accordance to the CLSI recommendation. The geometric mean of the MIC values (GM-MIC) of each compound against all the fungal isolates was calculated using the software, Microsoft Office Excel 2013.

[2] = test system: Candida haemulonii var. vulnera; assay: as above; assay type: cell-based; conditions: for GM-MIC: geometric mean of three C. haemulonii var. vulnera isolates; for MIC: planktonic, 48 h, 37°C
From the text: as §1, §2

Candida duobushaemulonii [3] = assay: as above; assay type: cell-based; conditions: for GM-MIC: geometric mean of three C. duobushaemulonii isolates; for MIC: planktonic, 48 h, 37°C
From the text: as §1, §2

Candida haemulonii [4] = assay: Biofilm-growing cells, XTT assay, bMIC; assay type: cell-based; conditions: for GM-bMIC: geometric mean, C. haemulonii isolates, values marked * do not include LIP Ch4 (>512); for bMIC: mature biofilm, 48 h, 50% inhibition of metabolic activity
Procedure: (§3) The effect of the compounds on biofilm-growing cells was determined using the previously described microtiter-based technique (Ramage et al., [2001]). The fungi (10^6 yeast cells) were incubated for 48 h at 37°C in 96-well polystyrene microtiter plates (Corning®, Corning Incorporated, USA) containing Sabouraud-dextrose broth to accommodate biofilm formation. Following biofilm formation, the culture medium was aspirated and non-adherent cells removed by thoroughly washing the wells three times with sterile PBS (0.15 M NaCl, 0.01 M phosphate buffer, pH 7.2). Afterwards, the compounds, at the same concentrations used in the planktonic assays, were added to the wells, and the plates were incubated for further 48 h at 37°C. The metabolic activity was then evaluated using a colorimetric assay that measures the metabolic reduction of 2,3-bis (2-methoxy-4-nitro-5-sulfophenyl)-5-[(phenylamino) carbonyl]-2H-tetrazolium hydroxide (XTT; Sigma-Aldrich) to a water-soluble, brown formazan product (Peeters et al., [2008]). The biofilm MIC (bMIC) for each compound was established as the minimal concentration capable of inhibiting 50% of metabolic activity when compared to compound-free wells (Ziccardi et al., [2015]).

[5] = test system: Candida haemulonii var. vulnera; assay: Biofilm-growing cells, XTT assay, bMIC; assay type: cell-based; conditions: for GM-bMIC: geometric mean, C. haemulonii var. vulnera isolates; for bMIC: mature biofilm, 48 h, 50% inhibition of metabolic activity
Procedure: as §3

Candida duobushaemulonii [6] = assay: Biofilm-growing cells, XTT assay, bMIC; assay type: cell-based; conditions: for GM-bMIC: geometric mean, C. duobushaemulonii isolates; for bMIC: mature biofilm, 48 h, 50% inhibition of metabolic activity
Procedure: as §3

C. haemulonii complex = assay: Planktonic growth, overall across all nine isolates; assay type: cell-based, Candida haemulonii complex; conditions: for Overall GM-MIC / MIC: geometric mean across all nine strains; for MIC: in μM, read-out: Overall GM-MIC
From the text: as §1, §2

A549 cells = assay: Mammalian cell toxicity (MTT assay) and selectivity index; assay type: cell-based, Human; conditions: MTT, 48 h incubation
From the text: as §1
The cytotoxicity was evaluated using the MTT [3-(4,5-dimethylthiazol-2-yl)-2,5-diphenyl tetrazolium bromide] (Sigma-Aldrich) assay (Mosmann, [1983]). A549 cells (10^4) were seeded into tissue culture plates (TPP, Switzerland) and cultured for 24 h at 37°C in a 5% CO2 in order to obtain cellular confluence. The wells were then washed twice with DMEM to remove non-adherent cells and the test compounds were added (in concentrations ranging from 0.0313 to 512 μg/mL) to plates containing DMEM, followed by a 48 h incubation period under the same conditions mentioned above. The cellular viability was evaluated by adding MTT to each well and incubating the plates in the dark for 3 h, allowing the viable cells containing active mitochondrial dehydrogenase enzymes to metabolize MTT-tetrazolium salt into purple formazan. The formazan crystals were then dissolved in DMSO (100 μL) and the absorbance (450 nm) measured using a Thermomax Molecular Device microplate reader. The concentration capable of reducing cellular viability by 50% (CC50) was calculated, and the selectivity index (SI) determined using the following equation: A549 CC50/C. haemulonii complex GM-MIC.

[7] = test system: Candida haemulonii complex; assay: Biofilm-growing cells, overall across isolates; assay type: cell-based; conditions: for Overall GM-bMIC: geometric mean across strains, values marked * do not include LIP Ch4 (>512)
Procedure: as §3

Compound	GM-MIC (Candida haemulonii [1]) [µg/mL]	MIC (Candida haemulonii [1]; isolate LIP Ch4) [µg/mL]	MIC (Candida haemulonii [1]; isolate LIP Ch7) [µg/mL]	MIC (Candida haemulonii [1]; isolate LIP Ch12) [µg/mL]	GM-MIC [2] [µg/mL]	MIC ([2]; isolate LIP Ch5) [µg/mL]	MIC ([2]; isolate LIP Ch9) [µg/mL]	MIC ([2]; isolate LIP Ch11) [µg/mL]	GM-MIC (Candida duobushaemulonii [3]) [µg/mL]	MIC (Candida duobushaemulonii [3]; isolate LIP Ch1) [µg/mL]	MIC (Candida duobushaemulonii [3]; isolate LIP Ch6) [µg/mL]	MIC (Candida duobushaemulonii [3]; isolate LIP Ch8) [µg/mL]	GM-bMIC (Candida haemulonii [4])	bMIC (Candida haemulonii [4]; isolate LIP Ch4) [mg/L]	bMIC (Candida haemulonii [4]; isolate LIP Ch7) [mg/L]	bMIC (Candida haemulonii [4]; isolate LIP Ch14) [mg/L]	GM-bMIC [5] [mg/L]	bMIC ([5]; isolate LIP Ch5) [mg/L]	bMIC ([5]; isolate LIP Ch9) [mg/L]	bMIC ([5]; isolate LIP Ch13) [mg/L]	also measured
O=[N+]([O-])[O-].[Ag+] [AgNO3, reference compound]	0.79	1	0.5	1	0.5	0.5	0.5	0.5	0.63	0.5	0.5	1	16^* mg/L	>512	8	32	40.32	128	64	8	GM-bMIC (Candida duobushaemulonii [6]): 32 mg/L; bMIC (Candida duobushaemulonii [6]; isolate LIP Ch1): 16 mg/L; bMIC (Candida duobushaemulonii [6]; isolate LIP Ch6): 16 mg/L; bMIC (Candida duobushaemulonii [6]; isolate LIP Ch8): 128 mg/L; Overall GM-MIC (C. haemulonii complex): 0.63 µg/mL; MIC (C. haemulonii complex): 3.93 µM; effect on planktonic fungal growth/viability (in words) (C. haemulonii complex; nine clinical isolates, 0.0625-32 mg/L): appreciably deterred fungal growth; A549 (CC50) (A549 cells): 16.98 µg/mL; decrease in activity on going from planktonic to biofilm cells ([7]; biofilm MIC versus planktonic MIC): 43.8 fold; Overall GM-bMIC ([7]; in μM): 172 µM; Overall GM-bMIC [7]: 29.34 mg/L
CCO.O.O.O.O.O.O.O=C([O-])c1cccc(C(=O)[O-])c1.[Cu+2].c1cnc2c(c1)ccc1cccnc12.c1cnc2c(c1)ccc1cccnc12 [compound 3, [Cu(isoph)(phen)2].6H2O.EtOH]	10.08	8	8	16	6.35	4	8	8	5.04	4	8	4	20.16 mg/L	32	16	16	12.70	16	8	16	GM-bMIC (Candida duobushaemulonii [6]): 12.70 mg/L; bMIC (Candida duobushaemulonii [6]; isolate LIP Ch1): 32 mg/L; bMIC (Candida duobushaemulonii [6]; isolate LIP Ch6): 8 mg/L; bMIC (Candida duobushaemulonii [6]; isolate LIP Ch8): 8 mg/L; Overall GM-MIC (C. haemulonii complex): 6.86 µg/mL; MIC (C. haemulonii complex): 9.21 µM; A549 (CC50) (A549 cells): 0.89 µg/mL; Overall GM-bMIC ([7]; in μM): 19.95 µM; Overall GM-bMIC [7]: 14.81 mg/L
CCO.O=C([O-])CCCCCCC(=O)[O-].[Cu+2].[Cu+2].[O-][Cl+3]([O-])([O-])[O-].[O-][Cl+3]([O-])([O-])[O-].c1cnc2c(c1)ccc1cccnc12.c1cnc2c(c1)ccc1cccnc12.c1cnc2c(c1)ccc1cccnc12.c1cnc2c(c1)ccc1cccnc12 [compound 5, [Cu2(oda)(phen)4](ClO4)2.2.76H2O.EtOH]	10.08	8	8	16	10.08	8	16	8	8	8	8	8	20.16 mg/L	32	16	16	16	32	8	16	GM-bMIC (Candida duobushaemulonii [6]): 16 mg/L; bMIC (Candida duobushaemulonii [6]; isolate LIP Ch1): 32 mg/L; bMIC (Candida duobushaemulonii [6]; isolate LIP Ch6): 8 mg/L; bMIC (Candida duobushaemulonii [6]; isolate LIP Ch8): 16 mg/L; Overall GM-MIC (C. haemulonii complex): 9.33 µg/mL; MIC (C. haemulonii complex): 7.09 µM; A549 (CC50) (A549 cells): 0.98 µg/mL; Overall GM-bMIC ([7]; in μM): 13.19 µM; Overall GM-bMIC [7]: 17.28 mg/L
O.O.O.O.O=C1C(=O)c2cccnc2-c2ncccc21.O=C1C(=O)c2cccnc2-c2ncccc21.O=C1C(=O)c2cccnc2-c2ncccc21.[Cu+2].[O-][Cl+3]([O-])([O-])[O-].[O-][Cl+3]([O-])([O-])[O-] [compound 6, [Cu(phendione)3](ClO4)2.4H2O]	16	16	16	16	6.35	4	8	8	8	8	16	4	50.80 mg/L	256	32	16	32	32	32	32	GM-bMIC (Candida duobushaemulonii [6]): 12.70 mg/L; bMIC (Candida duobushaemulonii [6]; isolate LIP Ch1): 16 mg/L; bMIC (Candida duobushaemulonii [6]; isolate LIP Ch6): 16 mg/L; bMIC (Candida duobushaemulonii [6]; isolate LIP Ch8): 8 mg/L; Overall GM-MIC (C. haemulonii complex): 9.33 µg/mL; MIC (C. haemulonii complex): 9.65 µM; A549 (CC50) (A549 cells): 0.68 µg/mL; Overall GM-bMIC ([7]; in μM): 28.42 µM; Overall GM-bMIC [7]: 27.43 mg/L
